From US9453051B2, “Cyclosporin derivatives” (priority 2011, dated 2016)
Read-outs that look alike come from different tables or passages of the source.

Experiments:
[1] = target: calcineurin (Homo sapiens, UniProt P62937+P63098+Q08209); test: Inhibition of the phosphatase activity of calcineurin (scintillation-proximity-assay, in presence of Cyp18);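 note: calcineurin dephosphorylation of a ³³P-labelled RII phosphopeptide, captured on streptavidin-coated wells and read by scintillation counting, with uninhibited enzyme activity taken as 100%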
Description: The measurement was carried out by incubation of 10 μMol of the biotinylated phosphopeptide [sequence]pSer-Val-Ala-Ala-Glu (MW=2192.0) (RH-peptide) marked with ^33P in a sample buffer (40 mM Tris-HCl, pH 7.5, 100 mM NaCl, 6 mM MgCl2, 0.5 mM dithiothreitol, 1 mM. CaCl2, 0.1 mg/ml bovine serum albumin) in presence of 50 nM calmodulin and 1.32 nM calcineurin at 30° C. for 20 min in a 96 well micro titer plate (Costar, Bodenheim, Germany). The total volume of the assay/well was 100 μl. After this reaction time a 90 μl aliquot of the reaction mixture was transferred into a scintillation cavity coated with streptavidin and incubated for 20 min at 22° C. After a washing step the RII phosphopeptide-associated ^33P radioactivity was measured in a MicroBeta Top Counter (Wallac) and the enzyme activity was indicated as average value of three measurements±S.D. The uninhibited dephosphorylation activity has been set on 100%.

[2] = target: recombinant human wild type Cyp18 (Cyp18 wt) (Homo sapiens, UniProt P62937); test: biochemical
Description: The determination was performed on a UV/Vis spectrometer at 10° C. cuvette temperature, whereby the device is operated at 390 nm in kinetic-mode (measurement buffer: 35 mM HEPES/NaOH pH 7.8 (AppliChem A1069)). 0.58 nM recombinant human wild type Cyp18 (Cyp18 wt), 2.33 nM bovine serum albumin (BSA) and 1 mg/ml chymotrypsin (Merck) solved in 35 mM HEPES/NaOH pH 7.8 as well as different concentration of each test substance, where appropriate, were in the cuvette. The reaction was started with a stock solution of Suc-Ala-Ala-Pro-Phe-4-nitroanilide (Bachem, 10 mg/ml DMSO) as substrate so that a final substrate concentration of 32 μM resulted. The extinction-time-curves were evaluated after expiry of the fast phase of the reaction i.e. after approximately 60 seconds according to a rate equation of a first-order reaction.

[3] = test system: NFAT; test: Cellular NFAT-reporter-gene assay (GloResponse NFAT-RE-luc2P HEK293); type: cell-based; settings: Homo sapiens, read-out: NFAT-reporter-gene assay IC50
Description: An antigen specific stimulation of the T-cell receptor causes the activation of transcription factors such as e.g. NFAT (nuclear factor of activated T cells). NFAT-activation is essential for the expression of interleukine-2 and therefore, for the proliferation of T-cells as part of the immune response. A stable NFAT-reporter-gene cell line enables the analysis of modulators of the NFAT-pathways and thus, the evaluation of the immunosuppressive effects of compounds.
The stably transfected reporter-gene cell line GloResponse NFAT-RE-luc2P HEK293 (promega Corp. USA) was cultivated in DMEM (10% FCS; 2 mM Glutamin; 200 μg/ml Hygromycin) and seeded on 96-well plates (200.000 cells/well). The compounds to be tested were either added to the cells in a 2-point-determination (5 μM and 10 μM) or an ICH-determination (concentration series 4.1 nM-1 μM). […] Immediately thereafter the cells were stimulated with 5 nM PMA and 2 μM ionomycin and incubated over 16 h (37° C.; cell incubator). This double stimulation simulates a T-cell receptor stimulation and causes a NFAT activation with subsequently expression of the luciferase-reporter-gene. The amount of luciferase was quantitatively determined after 16 h by measurement of the bioluminescence by Bright-Glo Luciferase-Assay-System (Promega Corp., USA). The averaged luciferase values of the vehicle treated (1% DMSO) and with PMA/ionomycin stimulated cells were used as positive control and reference value.

Sequence of recombinant human wild type Cyp18 (Cyp18 wt) (P62937 whole entry): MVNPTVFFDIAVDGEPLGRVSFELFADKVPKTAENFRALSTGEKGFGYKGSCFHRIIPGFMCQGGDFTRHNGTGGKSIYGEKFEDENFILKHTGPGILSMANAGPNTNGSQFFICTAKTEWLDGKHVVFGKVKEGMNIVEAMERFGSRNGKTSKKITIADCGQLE

Row | Structure (SMILES) | IC50 [1] | IC50 [2] | IC50 ([3]; HEK293, 16 h) | IC50 ([3]; HEK293 reporter cells stimulated with 5 nM PMA and 2 μM ionomycin, 16 h)
1 | CC[C@@H]1NC(=O)[C@H]([C@H](O)[C@H](C)Cc2nc3cc(C(=O)NCCN(C)C)ccc3[nH]2)N(C)C(=O)[C@H](C(C)C)N(C)C(=O)[C@H](CC(C)C)N(C)C(=O)[C@H](CC(C)C)N(C)C(=O)[C@@H](C)NC(=O)[C@H](C)NC(=O)[C@H](CC(C)C)N(C)C(=O)[C@H](C(C)C)NC(=O)[C@H](CC(C)C)N(C)C(=O)CN(C)C1=O [Compound 52] | > 10000 nM | 8 nM |  | 
2 | CC[C@@H]1NC(=O)[C@H]([C@H](O)[C@H](C)Cc2nc3cc(-c4ccc(N)c(N)c4)ccc3[nH]2)N(C)C(=O)[C@H](C(C)C)N(C)C(=O)[C@H](CC(C)C)N(C)C(=O)[C@H](CC(C)C)N(C)C(=O)[C@@H](C)NC(=O)[C@H](C)NC(=O)[C@H](CC(C)C)N(C)C(=O)[C@H](C(C)C)NC(=O)[C@H](CC(C)C)N(C)C(=O)CN(C)C1=O [Compound 39] | > 10000 nM | 6.1 nM | 10000 nM | 
3 | CC[C@@H]1NC(=O)[C@H]([C@H](O)[C@H](C)Cc2nc3cc(C(=O)N4CCCC4C(=O)N4CCC[C@H]4C(=O)N4CCCC4C(=O)N4CCC[C@H]4C(=O)N4CCCC4C(=O)N4CCC[C@H]4C(=O)O)ccc3[nH]2)N(C)C(=O)[C@H](C(C)C)N(C)C(=O)[C@H](CC(C)C)N(C)C(=O)[C@H](CC(C)C)N(C)C(=O)[C@@H](C)NC(=O)[C@H](C)NC(=O)[C@H](CC(C)C)N(C)C(=O)[C@H](C(C)C)NC(=O)[C@H](CC(C)C)N(C)C(=O)CN(C)C1=O (stereo partly shown) [Compound 49] | > 10000 nM | 30.9 nM |  | 
4 | CC[C@@H]1NC(=O)[C@H]([C@H](O)[C@H](C)Cc2nc3cc(/C=C/C(=O)OC(C)(C)C)ccc3[nH]2)N(C)C(=O)[C@H](C(C)C)N(C)C(=O)[C@H](CC(C)C)N(C)C(=O)[C@H](CC(C)C)N(C)C(=O)[C@@H](C)NC(=O)[C@H](C)NC(=O)[C@H](CC(C)C)N(C)C(=O)[C@H](C(C)C)NC(=O)[C@H](CC(C)C)N(C)C(=O)CN(C)C1=O [Compound 14] | 3200 nM | 36.4 nM |  | 
5 | CC[C@@H]1NC(=O)[C@H]([C@H](O)[C@H](C)Cc2nc3ccc(C(=O)OC)c(C(=O)OC)c3[nH]2)N(C)C(=O)[C@H](C(C)C)N(C)C(=O)[C@H](CC(C)C)N(C)C(=O)[C@H](CC(C)C)N(C)C(=O)[C@@H](C)NC(=O)[C@H](C)NC(=O)[C@H](CC(C)C)N(C)C(=O)[C@H](C(C)C)NC(=O)[C@H](CC(C)C)N(C)C(=O)CN(C)C1=O [Compound 30] |  | 29.1 nM | > 10000 nM | 
6 | CC[C@@H]1NC(=O)[C@H]([C@H](O)[C@H](C)Cc2nc3cc(C(=O)NCCOCCOCCNC(=O)[C@@H]4C[C@H](C(=O)O)C[C@H](C(=O)O)C4)ccc3[nH]2)N(C)C(=O)[C@H](C(C)C)N(C)C(=O)[C@H](CC(C)C)N(C)C(=O)[C@H](CC(C)C)N(C)C(=O)[C@@H](C)NC(=O)[C@H](C)NC(=O)[C@H](CC(C)C)N(C)C(=O)[C@H](C(C)C)NC(=O)[C@H](CC(C)C)N(C)C(=O)CN(C)C1=O [Compound 67] | > 10000 nM | 8.4 nM |  | 
7 | CC[C@@H]1NC(=O)[C@H]([C@H](O)[C@H](C)Cc2nc3ccc4c(S(=O)(=O)O)cccc4c3[nH]2)N(C)C(=O)[C@H](C(C)C)N(C)C(=O)[C@H](CC(C)C)N(C)C(=O)[C@H](CC(C)C)N(C)C(=O)[C@@H](C)NC(=O)[C@H](C)NC(=O)[C@H](CC(C)C)N(C)C(=O)[C@H](C(C)C)NC(=O)[C@H](CC(C)C)N(C)C(=O)CN(C)C1=O [Compound 45] |  |  | > 10000 nM | 
8 | CC[C@@H]1NC(=O)[C@H]([C@H](O)[C@H](C)Cc2nc3ncnc(O)c3[nH]2)N(C)C(=O)[C@H](C(C)C)N(C)C(=O)[C@H](CC(C)C)N(C)C(=O)[C@H](CC(C)C)N(C)C(=O)[C@@H](C)NC(=O)[C@H](C)NC(=O)[C@H](CC(C)C)N(C)C(=O)[C@H](C(C)C)NC(=O)[C@H](CC(C)C)N(C)C(=O)CN(C)C1=O [Compound 18] |  | 1.4 nM | > 10000 nM | 
9 | CC[C@@H]1NC(=O)[C@H]([C@H](O)[C@H](C)Cc2nc3cc(C(=O)NCCN4CCN(C(=O)CCC(=O)O)CC4)ccc3[nH]2)N(C)C(=O)[C@H](C(C)C)N(C)C(=O)[C@H](CC(C)C)N(C)C(=O)[C@H](CC(C)C)N(C)C(=O)[C@@H](C)NC(=O)[C@H](C)NC(=O)[C@H](CC(C)C)N(C)C(=O)[C@H](C(C)C)NC(=O)[C@H](CC(C)C)N(C)C(=O)CN(C)C1=O [Compound 54] | 7200 nM | 7.1 nM |  | 
10 | CC[C@@H]1NC(=O)[C@H]([C@H](O)[C@H](C)Cc2nc3cc(C(=O)NCCC(=O)NCCC(=O)NCCC(=O)NCCC(=O)NCCC(=O)NCCC(=O)O)ccc3[nH]2)N(C)C(=O)[C@H](C(C)C)N(C)C(=O)[C@H](CC(C)C)N(C)C(=O)[C@H](CC(C)C)N(C)C(=O)[C@@H](C)NC(=O)[C@H](C)NC(=O)[C@H](CC(C)C)N(C)C(=O)[C@H](C(C)C)NC(=O)[C@H](CC(C)C)N(C)C(=O)CN(C)C1=O [Compound 51] | > 10000 nM | 7.3 nM |  | 
11 | CC[C@@H]1NC(=O)[C@H]([C@H](O)[C@H](C)CC2=NC(C(=O)O)CO2)N(C)C(=O)[C@H](C(C)C)N(C)C(=O)[C@H](CC(C)C)N(C)C(=O)[C@H](CC(C)C)N(C)C(=O)[C@@H](C)NC(=O)[C@H](C)NC(=O)[C@H](CC(C)C)N(C)C(=O)[C@H](C(C)C)NC(=O)[C@H](CC(C)C)N(C)C(=O)CN(C)C1=O (stereo partly shown) [Compound 43] |  | 45.3 nM | 5300 nM | 
12 | CC[C@@H]1NC(=O)[C@H]([C@H](O)[C@H](C)Cc2nc3cccc(C(=O)O)c3n2C)N(C)C(=O)[C@H](C(C)C)N(C)C(=O)[C@H](CC(C)C)N(C)C(=O)[C@H](CC(C)C)N(C)C(=O)[C@@H](C)NC(=O)[C@H](C)NC(=O)[C@H](CC(C)C)N(C)C(=O)[C@H](C(C)C)NC(=O)[C@H](CC(C)C)N(C)C(=O)CN(C)C1=O [Compound 55] | > 10000 nM | 209 nM |  | 
13 | CCCCOC(=O)c1ccc2[nH]c(C[C@@H](C)[C@@H](O)[C@H]3C(=O)N[C@@H](CC)C(=O)N(C)CC(=O)N(C)[C@@H](CC(C)C)C(=O)N[C@@H](C(C)C)C(=O)N(C)[C@@H](CC(C)C)C(=O)N[C@@H](C)C(=O)N[C@H](C)C(=O)N(C)[C@@H](CC(C)C)C(=O)N(C)[C@@H](CC(C)C)C(=O)N(C)[C@@H](C(C)C)C(=O)N3C)nc2c1 [Compound 11] |  |  | 10000 nM | 
14 | CC[C@@H]1NC(=O)[C@H]([C@H](O)[C@H](C)Cc2nc3cc(C(=O)NCCOCCOCCNC(=O)CCC(=O)O)ccc3[nH]2)N(C)C(=O)[C@H](C(C)C)N(C)C(=O)[C@H](CC(C)C)N(C)C(=O)[C@H](CC(C)C)N(C)C(=O)[C@@H](C)NC(=O)[C@H](C)NC(=O)[C@H](CC(C)C)N(C)C(=O)[C@H](C(C)C)NC(=O)[C@H](CC(C)C)N(C)C(=O)CN(C)C1=O [Compound 68] | > 10000 nM | 8.5 nM |  | 
15 | CC[C@@H]1NC(=O)[C@H]([C@H](O)[C@H](C)Cc2nc3cc(S(=O)(=O)O)cc(F)c3[nH]2)N(C)C(=O)[C@H](C(C)C)N(C)C(=O)[C@H](CC(C)C)N(C)C(=O)[C@H](CC(C)C)N(C)C(=O)[C@@H](C)NC(=O)[C@H](C)NC(=O)[C@H](CC(C)C)N(C)C(=O)[C@H](C(C)C)NC(=O)[C@H](CC(C)C)N(C)C(=O)CN(C)C1=O [Compound 48] | > 10000 nM | 8.7 nM |  | 
16 | CC[C@@H]1NC(=O)[C@H]([C@H](O)[C@H](C)Cc2nc3cc(C(=O)NCCN4CCOCC4)ccc3[nH]2)N(C)C(=O)[C@H](C(C)C)N(C)C(=O)[C@H](CC(C)C)N(C)C(=O)[C@H](CC(C)C)N(C)C(=O)[C@@H](C)NC(=O)[C@H](C)NC(=O)[C@H](CC(C)C)N(C)C(=O)[C@H](C(C)C)NC(=O)[C@H](CC(C)C)N(C)C(=O)CN(C)C1=O [Compound 53] | 4200 nM | 12.7 nM |  | 
17 | CC[C@@H]1NC(=O)[C@H]([C@H](O)[C@H](C)CC2=NCCN2)N(C)C(=O)[C@H](C(C)C)N(C)C(=O)[C@H](CC(C)C)N(C)C(=O)[C@H](CC(C)C)N(C)C(=O)[C@@H](C)NC(=O)[C@H](C)NC(=O)[C@H](CC(C)C)N(C)C(=O)[C@H](C(C)C)NC(=O)[C@H](CC(C)C)N(C)C(=O)CN(C)C1=O [Compound 42] |  |  |  | 10000 nM
18 | CC[C@@H]1NC(=O)[C@H]([C@H](O)[C@H](C)Cc2nc3nc(S)nc(S)c3[nH]2)N(C)C(=O)[C@H](C(C)C)N(C)C(=O)[C@H](CC(C)C)N(C)C(=O)[C@H](CC(C)C)N(C)C(=O)[C@@H](C)NC(=O)[C@H](C)NC(=O)[C@H](CC(C)C)N(C)C(=O)[C@H](C(C)C)NC(=O)[C@H](CC(C)C)N(C)C(=O)CN(C)C1=O [Compound 16] | 7500 nM | 15.1 nM |  | 
19 | CC[C@@H]1NC(=O)[C@H]([C@H](O)[C@H](C)Cc2nc3cc(C(=O)Oc4ccccc4C(=O)O)ccc3[nH]2)N(C)C(=O)[C@H](C(C)C)N(C)C(=O)[C@H](CC(C)C)N(C)C(=O)[C@H](CC(C)C)N(C)C(=O)[C@@H](C)NC(=O)[C@H](C)NC(=O)[C@H](CC(C)C)N(C)C(=O)[C@H](C(C)C)NC(=O)[C@H](CC(C)C)N(C)C(=O)CN(C)C1=O [Compound 65] | > 10000 nM | 20.2 nM |  | 
20 | CC[C@@H]1NC(=O)[C@H]([C@H](O)[C@H](C)Cc2nc3cc(C(=O)OC(C)C)ccc3[nH]2)N(C)C(=O)[C@H](C(C)C)N(C)C(=O)[C@H](CC(C)C)N(C)C(=O)[C@H](CC(C)C)N(C)C(=O)[C@@H](C)NC(=O)[C@H](C)NC(=O)[C@H](CC(C)C)N(C)C(=O)[C@H](C(C)C)NC(=O)[C@H](CC(C)C)N(C)C(=O)CN(C)C1=O [Compound 25] |  |  | 10000 nM | 
